The record followed here is US9486472B2, “Methods for modulating neuronal responses” (UNIVERSITY OF BRITISH COLUMBIA CANADA, priority 2003, dated 2016).

Experiment [1] relates to CA1 neurons in hippocampal slices. The experiment is described as follows: Insulin-induced depression of AMPA receptor-mediated EPSCs, whole-cell recording of CA1 neurons. It is filed as cell-based, rat. As to conditions: 100 μg/ml in recording pipette; insulin 0.5 μM in bath. On the procedure:
GST-GluR23Y and GST-GluR23A were constructed by subcloning corresponding PCR fragments into pGEX 4T-1 vectors. GST fusion proteins were expressed in DH5α E. coli and purified from bacterial lysates according to the manufacturer's protocol (Pharmacia). Products were dialyzed in PBS and concentrated using Microcon-10 columns (Amicon) for intracellular application during whole-cell recordings.
Hippocampal slices (400 μm thickness) were prepared from Sprague-Dawley rats aged 16-26 postnatal days and perfused at room temperature with artificial cerebrospinal fluid containing (mM): 126 NaCl, 26 NaHCO3, 10 glucose, 3 KCl, 1.2 KH2PO4, 1 MgCl2, and 1 CaCl2, saturated with 95% O2/5% CO2^14. The recording pipettes (4-5 MO) were filled with solution containing (mM): 135 CsCl, 10 HEPES, 5 QX-314, 4 Mg-ATP, 2 MgCl2, 0.5 EGTA, 0.2 GTP and 0.1 CaCl2, pH 7.4, 310 mOsm. Whole-cell recording of CA1 neurons and the induction of LFS-LTD were performed as previously described.^14 […]

A further experiment addresses pp60 c-Src (Homo sapiens, UniProt P12931). Briefly: In vitro kinase assay with active recombinant Src. It is filed as biochemical. As to conditions: GST fusion protein as substrate. An excerpt:
FIGS. 7 A-D. Insulin increases phosphorylation of tyrosine residues within the GluR2 carboxyl terminal (CT) region. A. In vitro tyrosine phosphorylation of the GluR2 CT. GST fusion proteins of the GluR1 CT (GST-GluR1CT), the GluR2 CT (GST-GluR2CT), residues 869-876 (YKEGYNVYG (SEQ ID NO. 4)) of the GluR2 CT (GST-GluR23Y), which contains a cluster of three tyrosine residues (Y869, Y873, and Y876) and the same amino acid stretch of the GluR2 CT with its tyrosine residues replaced by alanines (GST-GluR23A), along with the GST back bone (GST) as control, were incubated in the absence (−) or presence (+) of active recombinant pp60 c-Src. Phosphorylation products were immunoblotted using an anti-phosphotyrosine antibody (top panel). […] B. Expression levels of HA-GluR2 and HA-GluR23Y-3A (where tyrosines 869, 873 and 876 were mutated to alanines) 48 h after transient transfection into HEK293 cells were determined by a cell ELISA assay using permeabilized cells. C. HEK293 cells transiently transfected with HA-GluR1, HA-GluR2 or HA-GluR23Y-3A, along with empty vector (mock transfection) as control. Forty-eight hours later, the cells were treated with or without 0.5 μM insulin for 10 min. The lysates were then subjected to immunoprecipitation with an anti-HA antibody under denaturing conditions and immunoblotting with an anti-phosphotyrosine antibody (Top blot; IB: PY). […]

In experiment [2] the test system is CA1 neurons in hippocampal slices. The experiment is described as follows: LFS-induced hippocampal CA1 long-term depression (LTD). It is filed as cell-based, rat. The following applies: postsynaptic application, 100 μg/ml; 1 Hz for 15 min. On the procedure:
Hippocampal slices (400 μm thickness) were prepared from Sprague-Dawley rats aged 16-26 postnatal days and perfused at room temperature with artificial cerebrospinal fluid containing (mM): 126 NaCl, 26 NaHCO3, 10 glucose, 3 KCl, 1.2 KH2PO4, 1 MgCl2, and 1 CaCl2, saturated with 95% O2/5% CO2^14. The recording pipettes (4-5 MO) were filled with solution containing (mM): 135 CsCl, 10 HEPES, 5 QX-314, 4 Mg-ATP, 2 MgCl2, 0.5 EGTA, 0.2 GTP and 0.1 CaCl2, pH 7.4, 310 mOsm. Whole-cell recording of CA1 neurons and the induction of LFS-LTD were performed as previously described.^14
The level of GluR2 tyrosine phosphorylation was assayed following low-frequency stimulation (LFS) of hippocampal slices (1 Hz for 15 min, which reliably induces LTD under our experimental conditions), to determine whether tyrosine phosphorylation of GluR2 CT may be required for LFS-induced long term depression (LTD). Slices were homogenized in denaturing buffer 10 min after the stimulation and GluR subunits were immunoprecipitated and probed for phosphotyrosine. […] Induction of LTD by LFS was blocked by postsynaptic application of GST-GluR23Y (100 μg/ml), but not by the mutant peptide GST-GluR23A (100 μg/ml; FIG. 10B) or by GST-GluR2834-843 (FIG. 10C).

Experiment [3] deals with AMPA receptor. The experiment is described as follows: OGD-induced decrease of cell-surface AMPA receptors (Cell-ELISA), cultured cortical neurons. It is filed as cell-based. The following applies: GluR2CT peptide (1 mM) with PEP-1, one hour before OGD. On the procedure: (§1) Ischemia-like insult was mimicked by oxygen and glucose deprivation (OGD) for one hour in cultured cortical neurons (DIV 12-14). OGD is a well-characterized cell culture model of ischemia. GluR2CT peptide (1 mM) was delivered into neurons by mixing it with the carrier peptide PEP-1 and incubating neurons with the mixture for one hour before OGD challenge. […] (n=6; *: P<0.05, Student's test, compared with Control).
(In general: An ELISA detects its analyte on a solid surface through an enzyme-linked reagent.)

The next experiment concerns hippocampal neurons. Briefly: NMDA- or STS-induced apoptosis in cultured hippocampal neurons (Cell Death ELISA, 11-dUTP, PI staining). It is filed as cell-based, rat. On the procedure: Hippocampi were rapidly removed from embryonic E l 8 Sprague Dawley rats and pooled prior to trituration. Hippocampal cell suspensions were plated onto poly-Dlysine coated culture dishes or glass coverslips and grown in Neurobasal™ media 10 (Invitrogen) for 14 days in vitro (DIV). The media from mature 14 DIV neurons was removed and replaced with 100 μM NMDA plus 10 μM glycine for 1 h at 37° C. prior to restoring neurons to the defined growth media. Twenty four hours after NMDA/glycine application, neurons were processed using cell death assays. NMDA-induced [Ca^2+]i responses were evoked and measured using methods described previously^26.
Apoptosis quantification: NMDA-induced apoptosis was quantified either using a Cell Death Detection Elisa Plus Kit (Roche Applied Sciences), which is based on the in vitro determination of cytoplasmic histone-associated DNA fragments, or using TdT mediated addition of biotinylated 11-dUTP to the free 3′-OH ends of DNA. Absorbance readings for both assays were carried out using a microplate reader.
Propidium Iodide (PI) staining of nuclei: After the induction of apoptosis, cells were fixed with 4% parafonnaldehyde/4% sucrose for 10 min followed by ice cold acetone for 1 min, and then stained with […] PI in Dulbecco's PBS for 30 min. Stained coverslips were mounted onto glass slides and viewed with a Leica fluorescence microscope to identify condensed nuclei. Cells with condensed nuclei were counted as apoptotic and the percentage of apoptotic cells to the total number of cells was calculated to give a semi-quantitative analysis, expressed as percentage of apoptosis.
A short peptide (YKEGYNVYGIE (SEQ ID NO. 2)) corresponding to amino acid residues from 869 to 879 of the C-terminus of GluR2 (R2-CT) was synthesized and incubated with a carrier protein (Pep-1)23 at a ratio of 1:20 in Dulbecco's modified Eagle's medium
(§2) (DMEM, Gibco) at 37° C. in a humidified atmosphere containing 5% CO2 for 30 min to allow the formation of R2-CT/Pep-1 complex. Hippocampal neurons (DW 12-14) were then overlaid with the preformed complex to reach a final R2-CT concentration of 1 μM and further incubated for 1 h before experiments commenced. Receptor Trafficking Assays

The subject of experiment [4] is cultured cortical neurons. Briefly: OGD-induced neuronal apoptosis (Cell Death Detection ELISAplus), GluR2-CT with PEP-1. It is filed as cell-based. As to conditions: GluR2CT peptide (1 mM) with PEP-1, one hour before OGD; 24 hr after OGD. On the procedure: as §1
Experiment [5] concerns AMPA receptor. The experiment is described as follows: Cell-ELISA of cell-surface AMPA receptors after NMDA treatment, hippocampal neurons. It is filed as cell-based, rat. The following applies: 100 μM NMDA + 10 μM glycine 1 h; R2-CT delivered with Pep-1 one hour prior to and during NMDA. On the procedure: as §2
Cell ELISA assay: Quantification of cell-surface AMPA or NMDA receptors was performed by a colorimetric cell-ELISA assay essentially as described previously^14. Briefly, hippocampal neurons were treated with 100 μM NMDA plus 10 μM glycine for 1 h and then fixed with 4% paraformaldehyde/4% sucrose in PBS for 10 min. Half of the cells in each treatment condition were then permeabilized with 0.1% Triton-X 100 for 5 min. Receptors on the plasma membrane surface and the total cellular pool were then determined by incubating the cells with monoclonal antibodies against the extracellular domains of GluR2 or NR1 (Chemicon, 1 μg/ml) overnight at 4° C., followed by incubation with HRP-conjugated anti-mouse IgG secondary antibody (1:1000, Amersham Life Sciences) for 1 h at room temperature. Following extensive washing with PBS, cells were incubated with OPD substrate (Sigma) for approximately 10 min. Reactions were stopped with 0.2 volumes of 3N HCl, and absorbance at 492 nm was read using a spectrophotometric microplate reader.

Take “GSTYKEGYNVYG [GST-GluR23Y, GST fusion protein of the nine amino-acid GluR2 CT stretch with three tyrosines]”: in experiment [1], the “insulin-induced EPSC depression” value is recorded as “prevented”. Also, in the experiment with pp60 c-Src, the “tyrosine phosphorylation by recombinant Src kinase” value is on record as “phosphorylated”. In experiment [2], the “induction of LTD by LFS” value is given as “blocked”.

In the case of “YKEGYNVYGIE [R2-CT, short peptide corresponding to amino acid residues 869 to 879 of the C-terminus of GluR2]”, the “OGD-induced decrease in cell-surface AMPA receptor expression” value with AMPA receptor [3] was “reduced the OGD-induced decrease in cell-surface AMPA receptor expression”. Also, in the experiment on hippocampal neurons (R2-CT alone or Pep-1 alone), the “NMDA-induced apoptosis, peptide or carrier alone” value is reported as “neither R2-CT nor Pep-1 alone had any detectable effect”. Moreover, the STS-induced neuronal apoptosis result in the experiment on hippocampal neurons (staurosporine 100 nM, 1 h) is “did not alter STS-induced neuronal apoptosis”. Also, the OGD-induced neuronal death result in experiment [4] was “largely prevented”. Also, the “NMDA-induced reduction of cell-surface AMPA receptors” value in the experiment on AMPA receptor [5] is on record as “prevented”.
